From patent publication US9295673B2, “Combination of mTOR inhibitors and P13-kinase inhibitors, and uses thereof” (Intellikine LLC, priority 2011, dated 2016)
Read-outs that look alike come from different tables or passages of the source.

Columns and labels:
PC3 = PC3 proliferation (Alamar Blue); type: cell-based; details: Homo sapiens, PC-3; PC3 cells
Procedure: For instance, an in vitro cellular proliferation assay can be performed to measure the metabolic activity of live cells. The assay is performed in a 96 well microtiter plate using Alamar Blue reduction. […] A compound disclosed herein is diluted in Tumor Cell Media and added in a 10 ul volume. […] A volume of 10 uL of Alamar Blue reagent is added to each well and plates are incubated for 3 hours at 37 C and 5% CO2.

PI3K δ = PI3K δ (Homo sapiens, UniProt O00329); assay: PI 3-Kinase (human) HTRF assay, PI3K δ; details: read-out: PI3K δ IC50
Procedure: (§1) An exemplary system is PI 3-Kinase (human) HTRF™ Assay from Upstate. […] Briefly, the assay is a time resolved FRET assay that indirectly measures PIP3 product formed by the activity of a PI3-K. The kinase reaction is performed in a microtitre plate (e.g., a 384 well microtitre plate). The total reaction volume is approximately 20 ul per well. In the first step, each well receives 2 ul of test compound in 20% dimethylsulphoxide resulting in a 2% DMSO final concentration. […] The plate is sealed and incubated for 15 minutes at room temperature. […] The plate is sealed and incubated for 1 hour at room temperature. The reaction is stopped by adding 5 ul of Stop Solution per well and then 5 ul of Detection Mix is added per well. The plate is sealed, incubated for 1 hour at room temperature, and then read on an appropriate plate reader. Data is analyzed and IC50s are generated using GraphPad Prism 5.

PI3K γ = PI3K γ (Homo sapiens, UniProt P48736); assay: PI 3-Kinase (human) HTRF assay, PI3K γ; details: read-out: PI3K γ IC50
mTOR = target: T1, mTOR (Homo sapiens, UniProt P42345); assay: mTOR kinase inhibition assay (radiometric or LanthaScreen TR-FRET); type: biochemical; details: Table 4; read-out: mTORC IC50
T1 construct: purchased Invitrogen
Procedure: The compounds described herein can be tested against recombinant mTOR (Invitrogen) in an assay containing 50 mM HEPES, pH 7.5, 1 mM EGTA, 10 mM MgCl2, 2.5 mM, 0.01% Tween, 10 μM ATP (2.5 μCi of μ-32P-ATP), and 3 mg/mL BSA. Rat recombinant PHAS-1/4EBP1 (Calbiochem; 2 mg/mL) is used as a substrate. Reactions are terminated by spotting onto nitrocellulose, which is washed with 1M NaC1/1% phosphoric acid (approximately 6 times, 5-10 minutes each). Sheets are dried and the transferred radioactivity quantitated by phosphorimaging.
For instance, one can use Invitrogen's LanthaScreen™ Kinase assay to test the inhibitors of mTOR disclosed herein. This assay is a time resolved FRET platform that measures the phosphorylation of GFP labeled 4EBP1 by mTOR kinase. The kinase reaction is performed in a white 384 well microtitre plate. The total reaction volume is 20 ul per well and the reaction buffer composition is 50 mM HEPES pH7.5, 0.01% Polysorbate 20, 1 mM EGTA, 10 mM MnCl2, and 2 mM DTT. In the first step, each well receives 2 ul of test compound in 20% dimethylsulphoxide resulting in a 2% DMSO final concentration. […] The plate is sealed and incubated for 1 hour at room temperature. […] The plate is sealed, incubated for 1 hour at room temperature, and then read on a plate reader set up for LanthaScreen™ TR-FRET. Data is analyzed and IC50s are generated using GraphPad Prism 5.

PI3K α = PI3K α (Homo sapiens, UniProt P42336); assay: PI 3-Kinase (human) HTRF assay, PI3K α; details: read-out: PI3K α IC50; Table 4
PI3K β = PI3K β (Homo sapiens, UniProt P42338); assay: PI 3-Kinase (human) HTRF assay, PI3K β; details: read-out: PI3K β IC50; Table 4
Procedure: as §1

T1 sequence (P42345 1360-2549 limits assumed): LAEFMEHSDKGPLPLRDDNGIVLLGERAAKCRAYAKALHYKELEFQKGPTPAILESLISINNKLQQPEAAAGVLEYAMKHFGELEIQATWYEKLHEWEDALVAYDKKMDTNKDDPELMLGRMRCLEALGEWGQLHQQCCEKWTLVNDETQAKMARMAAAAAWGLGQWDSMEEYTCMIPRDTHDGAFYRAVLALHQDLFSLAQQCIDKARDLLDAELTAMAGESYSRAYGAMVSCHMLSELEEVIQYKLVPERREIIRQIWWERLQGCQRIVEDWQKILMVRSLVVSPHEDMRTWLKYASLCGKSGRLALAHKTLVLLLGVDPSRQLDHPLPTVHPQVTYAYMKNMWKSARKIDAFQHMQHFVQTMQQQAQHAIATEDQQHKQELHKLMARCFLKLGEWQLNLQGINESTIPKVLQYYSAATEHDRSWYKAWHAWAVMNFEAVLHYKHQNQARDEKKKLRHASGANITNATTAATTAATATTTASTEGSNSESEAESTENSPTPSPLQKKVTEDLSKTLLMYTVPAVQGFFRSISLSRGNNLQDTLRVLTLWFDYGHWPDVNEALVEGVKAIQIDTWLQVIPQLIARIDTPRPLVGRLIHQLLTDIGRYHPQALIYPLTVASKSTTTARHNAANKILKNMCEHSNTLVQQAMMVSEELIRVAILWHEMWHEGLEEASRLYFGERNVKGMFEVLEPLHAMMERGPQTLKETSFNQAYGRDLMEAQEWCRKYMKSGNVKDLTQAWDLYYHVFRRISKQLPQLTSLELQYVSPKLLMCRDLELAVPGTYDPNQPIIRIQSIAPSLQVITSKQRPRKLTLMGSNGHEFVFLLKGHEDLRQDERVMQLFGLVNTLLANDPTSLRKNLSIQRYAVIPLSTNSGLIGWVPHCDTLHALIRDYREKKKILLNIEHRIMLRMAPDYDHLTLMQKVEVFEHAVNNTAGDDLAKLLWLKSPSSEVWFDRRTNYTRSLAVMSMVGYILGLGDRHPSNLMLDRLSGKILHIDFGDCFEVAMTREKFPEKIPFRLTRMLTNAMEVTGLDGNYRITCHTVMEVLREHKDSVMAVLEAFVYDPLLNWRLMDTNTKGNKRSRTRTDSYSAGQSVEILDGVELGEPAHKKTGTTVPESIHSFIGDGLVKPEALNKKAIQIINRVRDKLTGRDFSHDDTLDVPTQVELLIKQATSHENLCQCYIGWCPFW
Sequence of PI3K γ (P48736 whole entry): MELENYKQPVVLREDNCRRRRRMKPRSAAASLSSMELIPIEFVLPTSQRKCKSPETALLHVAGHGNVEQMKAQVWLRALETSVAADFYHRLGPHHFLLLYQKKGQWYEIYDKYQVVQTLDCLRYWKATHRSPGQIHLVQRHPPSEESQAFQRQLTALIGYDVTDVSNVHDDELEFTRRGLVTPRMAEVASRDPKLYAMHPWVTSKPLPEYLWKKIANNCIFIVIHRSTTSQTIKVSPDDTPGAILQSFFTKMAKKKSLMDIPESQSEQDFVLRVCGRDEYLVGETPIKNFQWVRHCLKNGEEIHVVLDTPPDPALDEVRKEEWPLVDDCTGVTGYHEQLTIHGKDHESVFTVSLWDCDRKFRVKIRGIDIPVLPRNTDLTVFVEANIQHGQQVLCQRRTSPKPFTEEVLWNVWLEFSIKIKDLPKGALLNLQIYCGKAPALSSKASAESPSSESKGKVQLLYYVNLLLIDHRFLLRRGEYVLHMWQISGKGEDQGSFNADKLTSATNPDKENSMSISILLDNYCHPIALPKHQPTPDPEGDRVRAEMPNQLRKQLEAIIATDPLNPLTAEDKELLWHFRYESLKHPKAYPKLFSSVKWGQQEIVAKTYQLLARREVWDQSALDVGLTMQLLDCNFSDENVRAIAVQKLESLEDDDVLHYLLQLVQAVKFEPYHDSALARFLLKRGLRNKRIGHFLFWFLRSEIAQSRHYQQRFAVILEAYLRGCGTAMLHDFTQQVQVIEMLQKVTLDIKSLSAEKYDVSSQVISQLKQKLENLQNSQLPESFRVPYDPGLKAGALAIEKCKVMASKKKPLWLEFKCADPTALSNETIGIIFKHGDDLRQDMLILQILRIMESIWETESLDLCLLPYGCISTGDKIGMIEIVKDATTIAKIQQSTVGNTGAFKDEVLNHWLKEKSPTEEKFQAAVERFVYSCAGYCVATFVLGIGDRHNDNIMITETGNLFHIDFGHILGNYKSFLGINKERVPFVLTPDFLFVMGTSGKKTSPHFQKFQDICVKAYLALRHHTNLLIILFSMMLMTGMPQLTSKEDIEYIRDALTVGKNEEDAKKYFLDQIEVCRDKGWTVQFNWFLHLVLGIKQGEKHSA
Sequence of PI3K δ (O00329 whole entry): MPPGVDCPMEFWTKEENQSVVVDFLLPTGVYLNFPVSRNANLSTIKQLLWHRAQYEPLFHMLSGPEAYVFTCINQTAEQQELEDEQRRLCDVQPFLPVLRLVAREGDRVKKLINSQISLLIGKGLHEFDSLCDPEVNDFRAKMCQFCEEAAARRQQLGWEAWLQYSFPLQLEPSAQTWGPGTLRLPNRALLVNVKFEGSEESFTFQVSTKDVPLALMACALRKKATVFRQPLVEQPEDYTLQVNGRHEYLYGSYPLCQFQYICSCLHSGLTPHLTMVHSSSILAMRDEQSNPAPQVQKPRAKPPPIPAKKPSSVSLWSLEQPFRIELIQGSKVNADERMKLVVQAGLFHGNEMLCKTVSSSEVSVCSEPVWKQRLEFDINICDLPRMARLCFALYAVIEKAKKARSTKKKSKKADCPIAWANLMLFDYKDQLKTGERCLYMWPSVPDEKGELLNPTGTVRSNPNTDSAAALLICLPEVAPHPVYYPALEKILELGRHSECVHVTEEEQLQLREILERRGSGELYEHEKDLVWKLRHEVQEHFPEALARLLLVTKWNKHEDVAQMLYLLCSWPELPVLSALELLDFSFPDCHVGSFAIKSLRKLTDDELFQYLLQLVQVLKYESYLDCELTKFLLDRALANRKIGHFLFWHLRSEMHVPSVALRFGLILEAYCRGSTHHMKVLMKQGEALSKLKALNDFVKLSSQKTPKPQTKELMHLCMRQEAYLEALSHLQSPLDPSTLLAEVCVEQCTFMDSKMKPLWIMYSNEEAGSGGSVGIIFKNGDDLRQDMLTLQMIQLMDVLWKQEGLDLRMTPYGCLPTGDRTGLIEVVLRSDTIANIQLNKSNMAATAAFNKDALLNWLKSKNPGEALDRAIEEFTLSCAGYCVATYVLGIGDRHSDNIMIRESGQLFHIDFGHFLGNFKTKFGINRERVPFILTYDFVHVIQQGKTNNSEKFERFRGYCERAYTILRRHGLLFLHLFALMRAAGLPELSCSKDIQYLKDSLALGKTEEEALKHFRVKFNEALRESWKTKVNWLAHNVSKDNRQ
Sequence of PI3K δ (P27986 whole entry partner): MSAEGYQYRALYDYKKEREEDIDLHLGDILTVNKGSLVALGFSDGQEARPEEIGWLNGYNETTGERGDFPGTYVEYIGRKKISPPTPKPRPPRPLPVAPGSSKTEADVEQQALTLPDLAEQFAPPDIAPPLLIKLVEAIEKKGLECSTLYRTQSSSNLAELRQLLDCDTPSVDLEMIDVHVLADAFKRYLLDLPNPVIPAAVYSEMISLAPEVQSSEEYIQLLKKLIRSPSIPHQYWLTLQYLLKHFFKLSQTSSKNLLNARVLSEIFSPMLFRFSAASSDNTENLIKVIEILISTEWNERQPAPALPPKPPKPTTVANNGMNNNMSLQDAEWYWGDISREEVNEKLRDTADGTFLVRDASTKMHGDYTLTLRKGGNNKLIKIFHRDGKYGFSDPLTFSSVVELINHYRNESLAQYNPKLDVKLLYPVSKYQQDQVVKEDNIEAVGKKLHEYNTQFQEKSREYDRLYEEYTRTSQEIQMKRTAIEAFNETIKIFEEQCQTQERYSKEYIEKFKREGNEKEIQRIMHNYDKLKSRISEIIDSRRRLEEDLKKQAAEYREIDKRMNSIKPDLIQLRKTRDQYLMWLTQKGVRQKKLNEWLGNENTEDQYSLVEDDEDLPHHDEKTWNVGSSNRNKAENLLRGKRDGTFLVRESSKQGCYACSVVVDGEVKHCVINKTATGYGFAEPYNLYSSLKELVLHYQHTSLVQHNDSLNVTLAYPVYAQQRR

Row | Compound | IC50 (PC3) [nM] | other results
1 | O=C(c1cnc2ccc(-c3cnc(Cl)c(NS(=O)(=O)c4ccccc4F)c3)cn12)N1CCOCC1 [Compound 452] | < 10000 | 
2 | O=C(c1cnc2ccc(-c3cnc(Cl)c(NS(=O)(=O)c4ccc(F)cc4)c3)cn12)N1CCOCC1 [Compound 457] | < 1000 | 
3 | O=C(c1cnc2ccc(-c3cnc(Cl)c(NS(=O)(=O)c4cccc(F)c4)c3)cn12)N1CCOCC1 [Compound 458] | < 1000 | 
4 | COc1ncc(-c2ccc3ncc(C(=O)N4CCOCC4)n3c2)cc1NS(=O)(=O)c1cccnc1 [Compound 462] | < 1000 | 
5 | CO[C@@H]1CCN(C(=O)c2cnc3ccc(-c4ccc5oc(N)nc5c4)cn23)C1 [Compound 464] | < 10000 | 
6 | COC1CN(C(=O)c2cnc3ccc(-c4ccc5oc(N)nc5c4)cn23)C1 [Compound 467] | < 1000 | 
7 | Nc1nc2cc(-c3ccc4ncc(C(=O)N5CC(N6CC[C@H](O)C6)C5)n4c3)ccc2o1 [Compound 469] | < 10000 | 
8 | Nc1nc2cc(-c3ccc4ncc(C(=O)N5CC(N6CC[C@@H](O)C6)C5)n4c3)ccc2o1 [Compound 470] | < 10000 | IC50 (PI3K δ; in vitro): < 10000 nM
9 | Nc1nc2cc(-c3ccc4ncc(C(=O)N5CCC(F)(F)C5)n4c3)ccc2o1 [Compound 471] | < 10000 | 
10 | CN(C(=O)c1cnc2ccc(-c3ccc4oc(N)nc4c3)cn12)C1CCOCC1 [Compound 472] | < 10000 | 
11 | Nc1nc2cc(-c3ccc4ncc(C(=O)N5CC(F)(F)C5)n4c3)ccc2o1 [Compound 473] | < 1000 | 
12 | Nc1nc2cc(-c3ccc4ncc(C(=O)N5CC[C@H](n6cccn6)C5)n4c3)ccc2o1 [Compound 478] | < 1000 | 
13 | Nc1nc2cc(-c3ccc4ncc(C(=O)N5C6CCC5COC6)n4c3)ccc2o1 [Compound 480] | < 1000 | 
14 | C[C@H]1COCCN1C(=O)c1cnc2ccc(-c3ccc4oc(N)nc4c3)cn12 [Compound 483] | < 10000 | 
15 | C[C@@H]1CN(C2CN(C(=O)c3cnc4ccc(-c5ccc6oc(N)nc6c5)cn34)C2)CCN1C [Compound 508] | < 1000 | 
16 | C[C@H]1CN(C2CN(C(=O)c3cnc4ccc(-c5ccc6oc(N)nc6c5)cn34)C2)CCN1 [Compound 510] | < 10000 | 
17 | C[C@@H]1CN(C2CN(C(=O)c3cnc4ccc(-c5ccc6oc(N)nc6c5)cn34)C2)CCN1 [Compound 511] | < 10000 | IC50 (PI3K γ; in vitro): < 10000 nM
18 | C[C@H]1CN(C2CN(C(=O)c3cnc4ccc(-c5ccc6oc(N)nc6c5)cn34)C2)CCN1C [Compound 512] | < 1000 | IC50 (PI3K γ; in vitro): < 10000 nM
19 | CC1(C)CN(C2CN(C(=O)c3cnc4ccc(-c5ccc6oc(N)nc6c5)cn34)C2)CCN1 [Compound 515] | < 1000 | 
20 | COc1ncc(-c2ccc3ncn(C4CCN(C(C)C)CC4)c(=O)c3c2)cc1NS(=O)(=O)c1ccccc1 [Compound 522] | < 1000 | 
21 | CC(C)N1CCC(n2cnc3ccc(-c4cnc(Cl)c(NS(C)(=O)=O)c4)cc3c2=O)CC1 [Compound 523] | < 10000 | 
22 | COc1ncc(-c2ccc3ncn(C4CCN(C)CC4)c(=O)c3c2)cc1NS(=O)(=O)c1ccccc1 [Compound 524] | < 1000 | 
23 | CN1CCC(n2cnc3ccc(-c4cnc(Cl)c(NS(C)(=O)=O)c4)cc3c2=O)CC1 [Compound 526] | < 10000 | 
24 | Nc1nc2cc(-c3ccc4ncc(N5C6CCC5COC6)nc4n3)ccc2o1 [Compound 570] |  | IC50 (mTOR): > 10000 nM; IC50 (PI3K α): < 100 nM; IC50 (PI3K β): > 10000 nM; IC50 (PI3K γ; Table 4): < 100 nM; IC50 (PI3K δ): > 10000 nM
25 | CN1CC2CN(c3cnc4ccc(-c5ccc6oc(N)nc6c5)nc4n3)CC2C1 (centres unmarked) [Compound 629] |  | IC50 (mTOR): > 10000 nM; IC50 (PI3K α): < 100 nM; IC50 (PI3K β): < 1000 nM; IC50 (PI3K γ; Table 4): < 10000 nM; IC50 (PI3K δ; Table 4): < 1000 nM
26 | CN1CC2CN(c3cnc4ccc(-c5ccc6oc(N)nc6c5)nc4c3)CC2C1 (centres unmarked) [Compound 630] |  | IC50 (mTOR): > 10000 nM; IC50 (PI3K α): < 100 nM; IC50 (PI3K β): < 1000 nM; IC50 (PI3K γ; Table 4): < 1000 nM; IC50 (PI3K δ; Table 4): < 1000 nM
